The record followed here is the CATMoS acute toxicity set (Mansouri et al. 2021).

The series can be described thus: rat acute oral toxicity. To be noted: in vivo. From the text:
[…]The data set underlying the modeling effort for this project was initially compiled by NICEATM and U.S. EPA’s CCTE. Briefly, LD50 data were collected from rat acute oral systemic toxicity tests, including limit tests, ranges/confidence intervals, and discrete LD50 values. The full data set included 21,200 LD50 entries for 15,688 substances. […] Data were reviewed to ensure that LD50 values with obvious errors in the extracted data such as unit conversion errors (e.g., comma and decimal separator misplacements) were either fixed or removed. After this review, 16,209 LD50 values remained. Many of the chemicals represented had multiple LD50 entries, requiring that a single representative value per Chemical Abstracts Service Registry Number (CASRN) identifier be defined to facilitate modeling efforts. Based on ATWG feedback and to define the representative LD50 as a protective value while accounting for the distribution across multiple LD50s, the median of the lowest quartile was computed using only discrete LD50 values (omitting limit test data and range and confidence interval data). A detailed summary of the data compilation is available online on the NICEATM webpage dedicated to the collaborative modeling project (NTP 2020).
[…][…] For categorical designations, limit test and range/confidence interval LD50 data were integrated wherever possible. As such, the number of chemicals with end point values/calls varies across the modeling end points (Table 3) based on whether chemicals had representative LD50 values and/or other data. If a chemical had both, the representative value was used to determine categorical calls rather than limit test data. Some data were useable only for certain end points and categories depending on the thresholds. For example, ranges that spanned multiple hazard categories were considered only for the binary (very toxic/nontoxic) end points and omitted from rendering a determination for hazard category assignment.
[…]The final data set comprising 11,992 chemicals was split into training and evaluation sets […], respectively. This process was performed semirandomly by ordering chemicals based on the five end points (categorical and continuous LD50 values) and partitioning every fourth record into the evaluation set accordingly. This approach was taken to ensure an equivalent distribution of the LD50 values and the different hazard categories between the training and the evaluation sets without supervised sampling of the chemicals based on structures (Figure 1A). The sources of the chemical structures were also kept equivalent between the two sets, with chemical structures obtained from DSSTox, being the highest quality, representing over 75% of each set (Figure 1B).

“And” between values parts separate entries of the source, which are not always exact repeats. Equal entries are not always repeated.

The term LD50 denotes the dose at which mortality reaches 50%. Higher therefore signals lower toxicity. As for `NS(=O)(=O)Cc1noc2ccccc12`, the LD50 was found to be 1990 mg/kg.
Next, `COCCOCCOCCOCCOC`: 3850 mg/kg; `CC1=CC(=O)CC(C)(C)C1`: 1500 mg/kg.
`Ic1ccccc1`: the LD50 is 1750 mg/kg.
Under `CNC(=O)Oc1ccccc1OC(C)C` stands 41 mg/kg.
Under `CCCC(C)C1(CC)C(=O)N=C(O)NC1=O` (configuration not stated) stands 52 mg/kg and 118 mg/kg; under `NC1CCCCC1`, 11 mg/kg; under `CCCCCc1cc(O)c2c(c1)OC(C)(C)[C@@H]1CCC(C)=C[C@@H]21`, 666 mg/kg.
Next, `C=C(C)C(=O)OCCCC`: 16000 mg/kg; `OCC1CO1` (configuration not stated): 420 mg/kg; `CC(=O)OC(C)C`: 3000 mg/kg.
In turn, `CCOP(=O)(OCC)OCC` showed an LD50 of 1160 mg/kg.
Next, `Cc1c(Cl)cccc1[N+](=O)[O-]`: 2320 mg/kg.
Next, `Cc1ccccc1Cc1ccccc1`: 3020 mg/kg; `CN(C)C(=O)Nc1ccc(Oc2ccc(Cl)cc2)cc1`: 3000 mg/kg; `CCCCCCCCCCCCCC[N+](C)(C)CCCCCCCCCCCCCC`: 930 mg/kg.
With `Oc1ccc(Cl)cc1Cc1cc(Cl)ccc1O`, the LD50 worked out at 1510 mg/kg.
Next, `Cc1ccc(N)cc1Cl`: 302 mg/kg; `Cc1ccc(N)c(C)c1`: 467 mg/kg.
Under `CO[Si](OC)(c1ccccc1)c1ccccc1` stands 2610 mg/kg; under `Cc1ccccc1O`, 121 mg/kg; under `ClCCl`, 1500 mg/kg.
Next, `Oc1ccccc1Cl`: 40 mg/kg; `CCN`: 400 mg/kg; `CCN(C)C`: 594 mg/kg.
`CCNCC`: the LD50 was found to be 540 mg/kg.
Molecule `OC[C@@H](O)[C@@H](O)CO` showed an LD50 of 13100 mg/kg.
Next, `CCOC(=O)C(Cl)C(C)=O` (configuration not stated): 233 mg/kg; `N#CN`: 134 mg/kg.
Next, `COC(=O)OC(=O)OC`: 260 mg/kg; `CCCCCCCCCc1ccc(OCCOCCO)cc1`: 1310 mg/kg.
Next, `CCC(N)CO` (configuration not stated): 800 mg/kg; `C/C=C\CC1=C(C)[C@@H](OC(=O)[C@@H]2[C@@H](C=C(C)C)C2(C)C)CC1=O`: 1030 mg/kg.
For `C/C=C\CC1=C(C)[C@@H](OC(=O)[C@@H]2[C@@H](/C=C(\C)C(=O)OC)C2(C)C)CC1=O`, the LD50 was found to be 1030 mg/kg.
Under `COP(=S)(OC)Oc1ccc([N+](=O)[O-])cc1` stands 6.01 mg/kg; under `N#CC(Br)(Br)C(N)=O`, 178 mg/kg.
Next, `c1ccc2[nH]c(-c3cscn3)nc2c1`: 2080 mg/kg; `CCCCCO`: 2200 mg/kg; `CCOP(=S)(OCC)Oc1cc(C)nc(C(C)C)n1`: 92 mg/kg.
In the case of `O=C(CCCN1CCC(O)(c2ccc(Cl)cc2)CC1)c1ccc(F)cc1`, the LD50 is 128 mg/kg.
As to `CCNC(=O)CSP(=S)(OC)OC`, the LD50 was determined as 125 mg/kg.
Next, `COc1ccc(C(c2ccc(OC)cc2)C(Cl)(Cl)Cl)cc1`: 1860 mg/kg.
Next, `CN1CCCC1=O`: 3910 mg/kg.
Next, `CC(C)(C)C(O)(CCc1ccc(Cl)cc1)Cn1cncn1` (configuration not stated): 1700 mg/kg; `COC(=O)c1ccccc1C(=O)OC`: 2860 mg/kg.
In turn, `CC(C)c1cccc(C(C)C)c1N` gave an LD50 of 3200 mg/kg.
Under `N#CCC#N` stands 14 mg/kg.
Under `O=c1oc2ccccc2c(O)c1C1CC(c2ccc(OCc3ccc(C(F)(F)F)cc3)cc2)Cc2ccccc21` (configuration not stated) stands 0.25 mg/kg; under `CCS(=O)CCSP(=O)(OC)OC` (configuration not stated), 48 mg/kg.
Under `O=Cc1ccccn1` stands 566 mg/kg; under `O=C(O)C(F)(OC(F)(F)C(F)(F)C(F)(F)F)C(F)(F)F` (configuration not stated), 1750 mg/kg.
For the molecule `CN`, the LD50 turned out to be 80 mg/kg.
Next, `Cc1ccncc1`: 440 mg/kg; `O=C1CCN(c2ccccc2)N1`: 200 mg/kg.
Consider `CCCCC(CC)CO` (configuration not stated), for which the LD50 was found to be 2050 mg/kg.
`N#CSCSc1nc2ccccc2s1` gave an LD50 of 679 mg/kg.
Under `C/C=C(/C)C(=O)O[C@H]1CCN2CC=C(COC(=O)[C@](O)([C@H](C)OC)C(C)(C)O)[C@H]12` stands 110 mg/kg; under `ClC=CCCl`, 110 mg/kg; under `CCCCCCCCCCCC[N+](C)(C)[O-]`, 1060 mg/kg.
Next, `O=c1oc2ccccc2c(O)c1C1CC(c2ccc(-c3ccc(Br)cc3)cc2)Cc2ccccc21` (configuration not stated): 0.16 mg/kg.
`OCC(F)(F)F` gave an LD50 of 153 mg/kg.
Under `COP(=S)(OC)Oc1ccc(Sc2ccc(OP(=S)(OC)OC)cc2)cc1` stands 444 mg/kg; under `CCCCOCCOCCOCc1cc2c(cc1CCC)OCO2`, 4570 mg/kg; under `O=C=Nc1ccccc1`, 800 mg/kg.
Under `OCCOCCO` stands 12600 mg/kg; under `NC=O`, 5580 mg/kg; under `C=CC(=O)OCC`, 800 mg/kg.
`COC(=O)CS`: the median lethal dose (LD50) is 84 mg/kg.
`O=C(OCCOCCOC(=O)c1ccccc1)c1ccccc1` displayed an LD50 of 2830 mg/kg.
Under `O=C(CCl)c1ccccc1` stands 50 mg/kg; under `Nc1ccc(Cl)c(Cl)c1`, 530 mg/kg; under `CC(O)COC(C)CO` (configuration not stated), 2280 mg/kg.
Under `CCC(C)=O` stands 2740 mg/kg; under `O=C(O)C1CCC(C(=O)O)CC1` (configuration not stated), 1900 mg/kg; under `Clc1nc(Cl)nc(Cl)n1`, 315 mg/kg.
`Cc1ccc(O)c(C)c1` returned a median lethal dose (LD50) of 2300 mg/kg.
The molecule `C[N+](C)(C)CCCl` showed an LD50 of 600 mg/kg.
Next, `CC(C)COC(=O)c1ccccc1C(=O)OCC(C)C`: 10400 mg/kg; `CC(=O)OCCc1ccccc1`: 3670 mg/kg.
`CCCCN(CCCC)C(=O)N(CCCC)CCCC` had an LD50 of 16700 mg/kg.
In turn, `CNC1=Nc2ccc(Cl)cc2C(c2ccccc2)=[N+]([O-])C1` had an LD50 of 392 mg/kg.
Next, `C=CNC=O`: 1000 mg/kg.
Under `CNP(=O)(OC)Oc1ccc(C(C)(C)C)cc1Cl` (configuration not stated) stands 460 mg/kg; under `NC(=O)c1ccccc1O`, 980 mg/kg.
Under `C=C(C)C(=O)OCCN=C=O` stands 670 mg/kg.
`CCC(C)(C)OC` registered an LD50 of 1600 mg/kg.
Next, `CNC(=O)CSP(=O)(OC)OC`: 25 mg/kg.
Next, `CC1(C)CC(O)CC(C)(C)N1[O]`: 953 mg/kg; `Cn1cnc([N+](=O)[O-])c1Sc1ncnc2nc[nH]c12`: 400 mg/kg; `CCCC=O`: 2490 mg/kg.
Next, `COc1ccc(OC)c([N+](=O)[O-])c1`: 2120 mg/kg.
`C=CCOC(=O)OCCOCCOC(=O)OCC=C`: the LD50 is 350 mg/kg.
Next, `Nc1ccccc1[N+](=O)[O-]`: 1600 mg/kg; `CCOP(=S)(OCC)OC(Cl)C(Cl)(Cl)Cl` (configuration not stated): 1.8 mg/kg; `CC1CCCCN1CCCOC(=O)c1ccc(Cl)c(Cl)c1` (configuration not stated): 800 mg/kg.
Under `OCCCCCCO` stands 3000 mg/kg; under `O=[N+]([O-])/N=C1\NCCN1Cc1ccc(Cl)nc1`, 410 mg/kg.
Under `CC(O)C(=O)O` (configuration not stated) stands 3540 mg/kg; under `CC(C)CO`, 2460 mg/kg.
`C=CCOC(=O)c1ccccc1C(=O)OCC=C` gave an LD50 of 656 mg/kg.
The molecule `COCCCNc1nc(NCCCOC)nc(SC)n1` registered an LD50 of 1400 mg/kg.
Next, `CCCCCCCCC=CCCCCCCCCN(CCO)CCO`: 1260 mg/kg.
Turning to `OCCOc1ccccc1`, the LD50 turned out to be 1370 mg/kg.
Consider `CCOc1ccc(NC(N)=O)cc1`, for which the LD50 was determined as 1900 mg/kg.
Next, `CC=O`: 661 mg/kg; `NC(=O)CF`: 5.75 mg/kg; `CCCCN(C)C`: 184 mg/kg.
Under `CCC1CO1` (configuration not stated) stands 500 mg/kg; under `CCCNCCC`, 300 mg/kg; under `C=CC#N`, 78 mg/kg.
Take `Clc1ccc(C(Cl)(Cl)Cl)cc1Cl`: the LD50 is 1420 mg/kg.
Next, `O=C1C=CC(=O)N1c1ccccc1`: 128 mg/kg; `CCC(=O)O[C@](Cc1ccccc1)(c1ccccc1)[C@H](C)CN(C)C`: 135 mg/kg.
Under `CCN(CC)c1c([N+](=O)[O-])cc(C(F)(F)F)c(N)c1[N+](=O)[O-]` stands 3000 mg/kg; under `CCCCC#N`, 332 mg/kg; under `C[n+]1ccc(-c2cc[n+](C)cc2)cc1`, 97.5 mg/kg and 106 mg/kg.
Next, `C#CC(C)(C)NC(=O)c1cc(Cl)cc(Cl)c1`: 3350 mg/kg; `O=C(Cl)c1ccc(Cl)cc1`: 3150 mg/kg; `CCc1ccccc1`: 3500 mg/kg.
In turn, `CSc1nnc(C(C)(C)C)c(=O)n1N` displayed an LD50 of 322 mg/kg.
Next, `CCNCCO`: 1000 mg/kg.
As to `ClC1C(Cl)C(Cl)C(Cl)C(Cl)C1Cl` (configuration not stated), the LD50 is 88 mg/kg and 100 mg/kg.
Under `CCCCCCCCCCCCCCN(C)C` stands 1320 mg/kg; under `OCCOCCOc1ccccc1`, 2140 mg/kg.
For `CC(=O)OCCOC(C)=O`, the LD50 was found to be 6850 mg/kg.
Next, `N#C/N=C1\SCCN1Cc1ccc(Cl)nc1`: 285 mg/kg; `C=COCCCC`: 10000 mg/kg.
